Laboratory results reported in ChEMBL document CHEMBL1140558, “An atom efficient, solvent-free, green synthesis and antimycobacterial evaluation of 2-amino-6-methyl-4-aryl-8-[(E)-arylmethylidene]-5,6,7,8-tetrahydro-4H-pyrano[3,2-c]pyridine-3-carbonitriles” (2007).
≈ marks a conversion by molar mass, not a printed value.

Key:
[1] = system: Mycolicibacterium smegmatis; experiment: Antimycobacterial activity against Mycobacterium smegmatis ATCC 14468 by agar dilution method; assay type: functional
[2] = system: Mycobacterium tuberculosis; experiment: Antimycobacterial activity against Mycobacterium tuberculosis H37Rv by agar dilution method; assay type: functional

Row | Structure (SMILES) | MIC [1] | MIC [2]
1 | Cc1ccccc1/C=C1\CN(C)CC2=C1OC(N)=C(C#N)C2c1ccccc1C (centres undefined) | 32.6 µM (≈ 12.5 µg/mL) | 16.3 µM (≈ 6.26 µg/mL)
2 | CN1CC2=C(OC(N)=C(C#N)C2c2ccc(N(C)C)cc2)/C(=C/c2ccc(N(C)C)cc2)C1 (centres undefined) | 28.3 µM (≈ 12.5 µg/mL) | 0.43 µM (≈ 0.19 µg/mL)
3 | CN1CC2=C(OC(N)=C(C#N)C2c2ccco2)/C(=C/c2ccco2)C1 (centres undefined) | 37.3 µM (≈ 12.5 µg/mL) | 37.3 µM (≈ 12.5 µg/mL)
4 | Cc1ccc(/C=C2\CN(C)CC3=C2OC(N)=C(C#N)C3c2ccc(C)cc2)cc1 (centres undefined) | 65.3 µM (≈ 25 µg/mL) | 16.3 µM (≈ 6.26 µg/mL)
5 | NNC(=O)c1ccncc1 [ISONIAZID] | 45.6 µM (≈ 6.25 µg/mL) | 0.36 µM (≈ 0.0494 µg/mL)
6 | CN1CC2=C(OC(N)=C(C#N)C2c2ccccc2)/C(=C/c2ccccc2)C1 (centres undefined) | 70.4 µM (≈ 25 µg/mL) | 35.2 µM (≈ 12.5 µg/mL)
7 | CN1CC2=C(OC(N)=C(C#N)C2c2ccc(Cl)cc2Cl)/C(=C/c2ccc(Cl)cc2Cl)C1 (centres undefined) | 50.7 µM (≈ 25 µg/mL) | 25.4 µM (≈ 12.5 µg/mL)
8 | CN1CC2=C(OC(N)=C(C#N)C2c2cccc(F)c2)/C(=C/c2cccc(F)c2)C1 (centres undefined) | 32 µM (≈ 12.5 µg/mL) | 0.99 µM (≈ 0.388 µg/mL)
9 | CN1CC2=C(OC(N)=C(C#N)C2c2ccccc2Cl)/C(=C/c2ccccc2Cl)C1 (centres undefined) | 59 µM (≈ 25 µg/mL) | 1.84 µM (≈ 0.781 µg/mL)
10 | CN1CC2=C(OC(N)=C(C#N)C2c2ccc(F)cc2)/C(=C/c2ccc(F)cc2)C1 (centres undefined) | 32 µM (≈ 12.5 µg/mL) | 0.97 µM (≈ 0.38 µg/mL)
11 | CN1CC2=C(OC(N)=C(C#N)C2c2ccc(Cl)cc2)/C(=C/c2ccc(Cl)cc2)C1 (centres undefined) | 3.68 µM (≈ 1.56 µg/mL) | 0.92 µM (≈ 0.39 µg/mL)
12 | CN1CC2=C(OC(N)=C(C#N)C2/C=C/c2ccccc2)/C(=C/C=C/c2ccccc2)C1 (centres undefined) | 30.7 µM (≈ 12.5 µg/mL) | 30.7 µM (≈ 12.5 µg/mL)
13 | CN1CC2=C(OC(N)=C(C#N)C2c2cccs2)/C(=C/c2cccs2)C1 (centres undefined) | 34.1 µM (≈ 12.5 µg/mL) | 68.1 µM (≈ 25 µg/mL)
14 | COc1c(N2CCNC(C)C2)c(F)cc2c(=O)c(C(=O)O)cn(C3CC3)c12 (centres undefined) [GATIFLOXACIN] | 2.08 µM (≈ 0.781 µg/mL) | 2.08 µM (≈ 0.781 µg/mL)
15 | CN1CC2=C(OC(N)=C(C#N)C2c2cccc([N+](=O)[O-])c2)/C(=C/c2cccc([N+](=O)[O-])c2)C1 (centres undefined) | 56.2 µM (≈ 25 µg/mL) | 1.75 µM (≈ 0.78 µg/mL)
16 | COc1ccc(/C=C2\CN(C)CC3=C2OC(N)=C(C#N)C3c2ccc(OC)cc2)cc1 (centres undefined) | 60.2 µM (≈ 25 µg/mL) | 30.1 µM (≈ 12.5 µg/mL)
17 | COc1ccccc1/C=C1\CN(C)CC2=C1OC(N)=C(C#N)C2c1ccccc1OC (centres undefined) | 30.1 µM (≈ 12.5 µg/mL) | 15.1 µM (≈ 6.26 µg/mL)
